Assay results published in US10851098B2, “Azole amides and amines as alpha v integrin inhibitors” (BRISTOL-MYERS SQUIBB COMPANY, priority 2016, dated 2020).
Where two headings read alike, the source gives them in different places.

Assays:
[1] = target: T1, human αVβ6 (Homo sapiens, UniProt P06756+P18564); experiment: human αVβ6 HTRF binding assay
T1 construct: purchased R & D systems 3817-AV
Summary of the method: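 HTRF binding format with biotinylated integrin, FITC-fibronectin and streptavidin-terbium, run in 20 mM Tris pH 7.4, 1 mM MgCl2, 1 mM MnCl2, 0.01% Tween 20, 0.01% BSA. A SPA-based binding assay was an alternative.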

[2] = target: human αVβ1 (Homo sapiens, UniProt P05556+P06756); experiment: human αVβ1 HTRF binding assay
Experimental: (§1) All binding assays used the HTRF (homogeneous time resolved fluorescence) technology from Cisbio International, therefore all assays are described as HTRF binding assays. The assay results for the Examples are listed above together with the characterization data. The HTRF binding assays are established for the following integrins: human αVβ6, human αVβ1, human αVβ3, human αVβ5, and human αVβ8. All assays used the following assay buffer: 20 mM Tris, pH 7.4, 1 mM MgCl2, 1 mM MnCl2, 0.01% Tween 20, and 0.01% BSA. Alternatively, a SPA-based assay was used for evaluation of receptor binding.
(§2) […]

[3] = target: human αVβ3 (Homo sapiens, UniProt P05106+P06756); experiment: human αVβ3 HTRF binding assay
Experimental: as §1, §2

[4] = target: human αVβ5 (Homo sapiens, UniProt P06756+P18084); experiment: human αVβ5 HTRF binding assay
Experimental: as §1, with “binding. […]” for “binding.”

[5] = target: human αVβ8 (Homo sapiens, UniProt P06756+P26012); experiment: human αVβ8 HTRF binding assay
Experimental: as §1, with “binding. […]” for “binding.”

Sequence of human αVβ5 (P06756 31-992 limits assumed): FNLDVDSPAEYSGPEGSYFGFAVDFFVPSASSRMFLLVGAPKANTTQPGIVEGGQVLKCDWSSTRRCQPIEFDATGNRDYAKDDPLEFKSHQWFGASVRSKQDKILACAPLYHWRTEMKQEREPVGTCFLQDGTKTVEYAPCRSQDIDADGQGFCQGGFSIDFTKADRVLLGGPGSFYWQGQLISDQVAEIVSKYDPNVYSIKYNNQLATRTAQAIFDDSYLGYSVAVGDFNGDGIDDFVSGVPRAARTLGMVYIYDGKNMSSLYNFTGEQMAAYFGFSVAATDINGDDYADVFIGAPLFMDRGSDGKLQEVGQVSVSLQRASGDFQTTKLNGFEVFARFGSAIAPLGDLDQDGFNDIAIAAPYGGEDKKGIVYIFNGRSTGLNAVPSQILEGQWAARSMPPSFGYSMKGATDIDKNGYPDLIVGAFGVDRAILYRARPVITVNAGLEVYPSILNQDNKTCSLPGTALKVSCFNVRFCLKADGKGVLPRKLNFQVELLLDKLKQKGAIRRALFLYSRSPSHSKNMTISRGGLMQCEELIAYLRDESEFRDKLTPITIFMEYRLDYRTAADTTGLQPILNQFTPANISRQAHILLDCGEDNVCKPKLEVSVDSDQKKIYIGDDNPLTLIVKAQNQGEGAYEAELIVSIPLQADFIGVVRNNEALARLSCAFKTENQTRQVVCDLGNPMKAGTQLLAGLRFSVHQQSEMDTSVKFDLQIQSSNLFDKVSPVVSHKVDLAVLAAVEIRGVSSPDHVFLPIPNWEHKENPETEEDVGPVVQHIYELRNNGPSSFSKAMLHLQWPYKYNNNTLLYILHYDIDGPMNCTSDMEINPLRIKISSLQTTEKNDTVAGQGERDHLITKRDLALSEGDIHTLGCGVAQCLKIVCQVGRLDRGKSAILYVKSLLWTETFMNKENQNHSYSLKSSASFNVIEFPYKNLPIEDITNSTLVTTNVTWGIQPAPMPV
Sequence of human αVβ5 (P18084 24-719 limits assumed): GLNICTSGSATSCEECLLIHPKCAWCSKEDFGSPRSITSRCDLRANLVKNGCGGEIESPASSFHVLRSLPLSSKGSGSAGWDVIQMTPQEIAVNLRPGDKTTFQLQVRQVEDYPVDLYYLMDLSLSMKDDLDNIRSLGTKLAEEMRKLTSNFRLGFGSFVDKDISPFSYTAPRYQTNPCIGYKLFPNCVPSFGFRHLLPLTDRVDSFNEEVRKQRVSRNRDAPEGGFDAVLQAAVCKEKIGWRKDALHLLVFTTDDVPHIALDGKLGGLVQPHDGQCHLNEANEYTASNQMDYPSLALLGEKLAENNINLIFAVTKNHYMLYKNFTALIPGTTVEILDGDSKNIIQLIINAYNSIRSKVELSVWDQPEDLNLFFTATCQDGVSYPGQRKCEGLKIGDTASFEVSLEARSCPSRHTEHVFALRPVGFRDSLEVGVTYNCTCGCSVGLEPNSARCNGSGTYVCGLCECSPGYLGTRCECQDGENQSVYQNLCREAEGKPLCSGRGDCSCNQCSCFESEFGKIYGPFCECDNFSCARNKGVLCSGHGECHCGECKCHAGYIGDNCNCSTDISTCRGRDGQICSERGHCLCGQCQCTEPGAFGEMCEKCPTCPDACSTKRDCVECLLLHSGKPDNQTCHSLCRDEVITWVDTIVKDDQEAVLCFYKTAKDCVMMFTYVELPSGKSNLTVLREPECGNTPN
Sequence of human αVβ3 (P06756 31-992 limits assumed): as the sequence (P06756 31-992 limits assumed) above
Sequence of human αVβ3 (P05106 27-718 limits assumed): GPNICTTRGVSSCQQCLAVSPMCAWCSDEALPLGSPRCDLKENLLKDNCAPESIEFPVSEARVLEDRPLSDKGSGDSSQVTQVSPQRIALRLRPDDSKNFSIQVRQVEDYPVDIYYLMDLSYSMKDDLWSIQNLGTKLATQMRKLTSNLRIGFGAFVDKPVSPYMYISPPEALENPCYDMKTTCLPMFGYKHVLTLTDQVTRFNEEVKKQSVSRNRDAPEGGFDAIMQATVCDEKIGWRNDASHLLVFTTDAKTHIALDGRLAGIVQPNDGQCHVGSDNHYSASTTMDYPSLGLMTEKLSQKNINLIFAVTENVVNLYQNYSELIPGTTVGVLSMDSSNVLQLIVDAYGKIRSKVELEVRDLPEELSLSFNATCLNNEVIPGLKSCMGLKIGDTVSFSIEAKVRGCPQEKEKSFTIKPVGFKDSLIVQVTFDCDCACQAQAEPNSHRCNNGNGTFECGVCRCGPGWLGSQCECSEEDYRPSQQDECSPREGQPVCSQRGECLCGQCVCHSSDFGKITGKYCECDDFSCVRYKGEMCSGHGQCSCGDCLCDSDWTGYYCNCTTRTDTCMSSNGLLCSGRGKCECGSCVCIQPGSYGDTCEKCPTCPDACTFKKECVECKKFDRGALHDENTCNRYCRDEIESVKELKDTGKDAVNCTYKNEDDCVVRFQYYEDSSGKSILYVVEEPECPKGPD
Sequence of human αVβ1 (P06756 31-992 limits assumed): as the sequence (P06756 31-992 limits assumed) above
Sequence of human αVβ1 (P05556 21-728 limits assumed): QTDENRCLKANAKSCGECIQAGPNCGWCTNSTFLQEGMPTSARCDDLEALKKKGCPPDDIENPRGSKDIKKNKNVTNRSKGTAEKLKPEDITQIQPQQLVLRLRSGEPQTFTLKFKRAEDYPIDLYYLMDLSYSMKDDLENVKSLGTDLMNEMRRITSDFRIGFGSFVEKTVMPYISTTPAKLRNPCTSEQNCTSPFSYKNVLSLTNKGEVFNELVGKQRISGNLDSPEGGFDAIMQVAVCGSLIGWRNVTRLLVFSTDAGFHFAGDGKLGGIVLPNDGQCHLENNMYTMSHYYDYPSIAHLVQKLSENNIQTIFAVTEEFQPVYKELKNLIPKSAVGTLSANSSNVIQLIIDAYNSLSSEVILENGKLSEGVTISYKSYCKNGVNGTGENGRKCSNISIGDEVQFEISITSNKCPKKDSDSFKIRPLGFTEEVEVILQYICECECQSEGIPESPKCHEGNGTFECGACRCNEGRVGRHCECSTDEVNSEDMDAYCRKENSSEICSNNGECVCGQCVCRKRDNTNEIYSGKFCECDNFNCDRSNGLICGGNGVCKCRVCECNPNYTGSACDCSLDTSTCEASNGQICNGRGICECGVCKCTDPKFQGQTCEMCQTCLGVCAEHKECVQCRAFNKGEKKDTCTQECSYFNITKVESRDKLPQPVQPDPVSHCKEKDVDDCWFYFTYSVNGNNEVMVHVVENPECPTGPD
Sequence of human αVβ8 (P06756 31-992 limits assumed): as the sequence (P06756 31-992 limits assumed) above
Sequence of human αVβ8 (P26012 43-684 limits assumed): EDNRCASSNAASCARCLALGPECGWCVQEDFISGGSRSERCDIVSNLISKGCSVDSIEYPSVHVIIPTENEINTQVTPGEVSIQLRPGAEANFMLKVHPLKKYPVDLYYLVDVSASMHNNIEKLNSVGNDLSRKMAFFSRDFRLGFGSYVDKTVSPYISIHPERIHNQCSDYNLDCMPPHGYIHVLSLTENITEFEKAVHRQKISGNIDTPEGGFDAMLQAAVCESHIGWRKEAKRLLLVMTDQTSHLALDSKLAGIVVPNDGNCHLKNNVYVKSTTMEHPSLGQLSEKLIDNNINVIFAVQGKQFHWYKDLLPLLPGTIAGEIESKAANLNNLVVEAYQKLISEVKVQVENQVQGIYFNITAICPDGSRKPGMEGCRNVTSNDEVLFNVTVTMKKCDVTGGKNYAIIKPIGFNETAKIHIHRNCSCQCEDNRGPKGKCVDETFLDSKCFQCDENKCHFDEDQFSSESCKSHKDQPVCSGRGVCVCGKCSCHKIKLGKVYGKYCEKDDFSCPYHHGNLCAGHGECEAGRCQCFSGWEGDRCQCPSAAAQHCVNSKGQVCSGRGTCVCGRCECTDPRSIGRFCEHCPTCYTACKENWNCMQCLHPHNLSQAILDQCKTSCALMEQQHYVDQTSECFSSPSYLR
T1 sequence (P06756 31-992 limits assumed): as the sequence (P06756 31-992 limits assumed) above
T1 sequence (P18564 22-707 limits assumed): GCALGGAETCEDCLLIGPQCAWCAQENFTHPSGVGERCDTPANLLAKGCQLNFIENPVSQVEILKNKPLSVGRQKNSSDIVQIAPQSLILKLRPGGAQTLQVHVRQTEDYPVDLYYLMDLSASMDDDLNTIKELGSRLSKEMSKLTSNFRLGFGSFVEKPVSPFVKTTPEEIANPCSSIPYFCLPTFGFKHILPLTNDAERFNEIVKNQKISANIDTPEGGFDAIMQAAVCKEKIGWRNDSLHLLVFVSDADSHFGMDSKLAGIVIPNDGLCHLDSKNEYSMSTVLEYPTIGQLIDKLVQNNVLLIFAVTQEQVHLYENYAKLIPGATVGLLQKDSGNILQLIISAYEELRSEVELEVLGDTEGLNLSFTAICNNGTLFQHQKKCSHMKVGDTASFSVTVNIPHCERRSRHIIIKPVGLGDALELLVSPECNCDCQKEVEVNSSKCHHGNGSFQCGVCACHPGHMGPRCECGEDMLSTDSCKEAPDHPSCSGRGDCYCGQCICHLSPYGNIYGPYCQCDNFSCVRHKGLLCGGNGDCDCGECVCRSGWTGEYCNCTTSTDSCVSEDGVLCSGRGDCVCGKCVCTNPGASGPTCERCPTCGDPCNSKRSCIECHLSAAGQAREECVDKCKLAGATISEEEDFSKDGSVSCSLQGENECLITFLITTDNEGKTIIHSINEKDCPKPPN

Structure (SMILES) | IC50 [1] [nM] | IC50 [2] [nM] | IC50 ([3]; read-out: Human αVβ3 IC50) [nM] | IC50 [4] [nM] | IC50 [5] [nM] | IC50 ([3]; printed as αVβ4, read-out: Human αVβ4 IC50) [nM]
Cc1cc(C)c(S(=O)(=O)N[C@@H](CNC(=O)c2cnn(CCc3ccc4c(n3)NCCC4)c2)C(=O)O)c(C)c1 [Example 10, (S)-3-(1-(2-(5,6,7,8-Tetrahydro-1,8-naphthyridin-2-yl)ethyl)-1H-pyrazole-4-carboxamido)-2-((2,4,6-trimethylphenyl)sulfonamido)propanoic acid] | 0.5 | 6.3 | 1.9 | 0.2 | 14 | –
O=C(N[C@@H](CNC(=O)c1cnn(CCc2ccc3c(n2)NCCC3)c1)C(=O)O)OCc1ccccc1 [Example 12, (S)-2-(((Benzyloxy)carbonyl)amino)-3-(1-(2-(5,6,7,8-tetrahydro-1,8-naphthyridin-2-yl)ethyl)-1H-pyrazole-4-carboxamido)propanoic acid] | 1.1 | – | 2.1 | 0.2 | 49 | –
CCCCOC(=O)N[C@@H](CNC(=O)c1cnn(CCc2ccc3c(n2)NCCC3)c1)C(=O)O [Example 20, (S)-2-((Butoxycarbonyl)amino)-3-(1-(2-(5,6,7,8-tetrahydro-1,8-naphthyridin-2-yl)ethyl)-1H-pyrazole-4-carboxamido)propanoic acid] | 1.1 | 27 | 1.8 | 0.2 | 86 | –
Cc1cc(C)c(S(=O)(=O)N[C@@H](CNC(=O)c2cn(CCc3ccc4c(n3)NCCC4)nn2)C(=O)O)c(C)c1 [Example 111] | 0.8 | 46 | 6.4 | 1.1 | 63 | –
Cc1cc(C)c(S(=O)(=O)N[C@@H](CNC(=O)c2ccn(CCc3ccc4c(n3)NCCC4)n2)C(=O)O)c(C)c1 [Example 112] | 1 | 45 | 2 | 0.4 | 115 | –
Cc1cc(C)c(S(=O)(=O)N[C@@H](CNC(=O)c2cnn(CCc3ccc4c(n3)NCCC4)n2)C(=O)O)c(C)c1 [Example 113] | 1.3 | 111 | 3 | 0.3 | 57 | –
Cc1cc(C)c(S(=O)(=O)N[C@H](CNC(=O)c2cn(CCc3ccc4c(n3)NCCC4)cn2)C(=O)O)c(C)c1 [Example 114] | 2 | – | – | 0.5 | 156 | 4.4
Cc1cc(C)c(S(=O)(=O)N[C@@H](CNC(=O)c2ccn(CCc3ccc4c(n3)NCCC4)c2)C(=O)O)c(C)c1 [Example 119] | 0.5 | 6.3 | 1.5 | 0.2 | 31 | –
O=C(N[C@H](CNC(=O)c1cn(CCc2ccc3c(n2)NCCC3)cn1)C(=O)O)OCc1ccccc1 [Example 121] | 2.3 | 77 | 1.6 | 0.3 | 246 | –
Cc1cc(C)c(S(=O)(=O)N[C@@H](CNC(=O)c2ncn(CCc3ccc4c(n3)NCCC4)n2)C(=O)O)c(C)c1 [Example 123] | 2 | 126 | 2.1 | 902 | 152 | –
O=C(NC[C@H](NS(=O)(=O)CC1CCCCC1)C(=O)O)c1cnn(CCc2ccc3c(n2)NCCC3)c1 [Example 164] | 6.4 | – | – | – | – | –
O=C(NC[C@H](NS(=O)(=O)Cc1ccc(Cl)cc1Cl)C(=O)O)c1cnn(CCc2ccc3c(n2)NCCC3)c1 [Example 165] | 2.9 | – | – | – | – | –
O=C(NC[C@H](NS(=O)(=O)Cc1ccccc1F)C(=O)O)c1cnn(CCc2ccc3c(n2)NCCC3)c1 [Example 166] | 10 | – | – | – | – | –

Continued, values first:

IC50 [1] [nM] | IC50 [2] [nM] | IC50 ([3]; read-out: Human αVβ3 IC50) [nM] | IC50 [4] [nM] | IC50 [5] [nM] | IC50 ([3]; printed as αVβ4, read-out: Human αVβ4 IC50) [nM] | Structure (SMILES)
9.5 | – | – | – | – | – | O=C(NC[C@H](NS(=O)(=O)Cc1ccncc1)C(=O)O)c1cnn(CCc2ccc3c(n2)NCCC3)c1 [Example 167]
17 | – | – | – | – | – | O=C(NC[C@H](NS(=O)(=O)Cc1ccc(F)cc1)C(=O)O)c1cnn(CCc2ccc3c(n2)NCCC3)c1 [Example 168]
13 | – | – | – | – | – | N#Cc1cccc(CS(=O)(=O)N[C@@H](CNC(=O)c2cnn(CCc3ccc4c(n3)NCCC4)c2)C(=O)O)c1 [Example 169]
5.5 | – | – | – | – | – | O=C(N[C@@H](CNC(=O)c1cnn(CCc2ccc3c(n2)NCCC3)c1)C(=O)O)OCCF [Example 170]
14 | – | – | – | – | – | Cc1cc(C)c(S(=O)(=O)N[C@@H](CNC(=O)c2cnn(CCCNC3=NCCN3)c2)C(=O)O)c(C)c1 [Example 171]
4.5 | – | – | – | – | – | Cc1cc(C)c(S(=O)(=O)N[C@@H](CNC(=O)c2cnn(CCCNC3=NCC(O)CN3)c2)C(=O)O)c(C)c1 (stereo partly shown) [Example 172]
2.1 | – | – | – | – | – | Cc1cc(C)c(S(=O)(=O)N[C@@H](CNC(=O)c2cnn(CCCNC3=NCC(F)CN3)c2)C(=O)O)c(C)c1 (stereo partly shown) [Example 173]
6.2 | – | – | – | – | – | O=C(N[C@@H](CNCc1cnn(CCc2ccc3c(n2)NCCC3)c1)C(=O)O)OCc1ccccc1 [Example 174, (S)-2-(((Benzyloxy)carbonyl)amino)-3-(((1-(2-(5,6,7,8-tetrahydro-1,8-naphthyridin-2-yl)ethyl)-1H-pyrazol-4-yl)methyl)amino)propanoic acid]
272 | – | – | – | – | – | O=C(O)CCNCc1cnn(CCc2ccc3c(n2)NCCC3)c1 [Example 175, 3-(((1-(2-(5,6,7,8-Tetrahydro-1,8-naphthyridin-2-yl)ethyl)-1H-pyrazol-4-yl)methyl)amino)propanoic acid]
249 | – | – | – | – | – | O=C(O)CCN(Cc1cnn(CCc2ccc3c(n2)NCCC3)c1)C(=O)OCc1ccccc1 [Example 176, 3-(((Benzyloxy)carbonyl)((1-(2-(5,6,7,8-tetrahydro-1,8-naphthyridin-2-yl)ethyl)-1H-pyrazol-4-yl)methyl)amino)propanoic acid]
